The values below come from paper PMC5293122, “Linalool, a Piper aduncum essential oil component, has selective activity against Trypanosoma cruzi trypomastigote forms at 4°C” (Memórias do Instituto Oswaldo Cruz, 2017).

Converted amounts (≈) assume the structure as drawn. “And” between values parts separate entries of the source, which are not always exact repeats. Equal entries are not always repeated. “Also recorded” adds a separate entry of the source. Where two headings read alike, the source gives them in different places.

For one series, the system named is Vero cells. The series can be described thus: Cytotoxicity on Vero cells, MTT assay. Conditions: 1 µg/mL, 24 h; not shown. The format is cell-based. (Tetrazolium dyes change colour on reduction, which living cells bring about.)
The subject of series [1] is Trypanosoma cruzi cell-derived trypomastigotes. Put plainly: Activity on cell-derived trypomastigotes at 4 °C, 24 h, MTT assay. The format is cell-based, T. cruzi clone Dm28c. Conditions: for Selectivity index (SI) - Vero cells: Table II, CC50 Vero cells / IC50 cell-derived trypomastigotes (4 °C); for IC50: Trypanosoma cruzi.
The next series relates to Chagas disease. Conditions: cited from earlier work; for Treatment efficacy: ref Rassi et al. 2009.
Series [2] deals with Trypanosoma cruzi intracellular amastigotes. Put plainly: PaEO activity against intracellular amastigotes in Vero cells, 37 °C, 24 h, infection index. Conditions: for Amastigotes per cell / Infected cells (%): Vero cells; for Infection index (II): II = % infected cells x amastigotes per cell. In kind it is cell-based. The method, then:
Vero cells - Vero cells (ATCC CCL-81) were grown in RPMI-1640 medium with L-glutamine (Sigma Aldrich, St. Louis, MO, USA), supplemented with 5% fetal calf serum (FCS; Cultilab, Campinas, SP, Brazil), at 37 °C, and in a humidified 5% CO2 atmosphere. For seeding, cell monolayers were washed twice with PBS (pH 7.2), trypsinized and collected by centrifugation at 100 g for 2 min.
(§1) Parasites - In this work, we used the T. cruzi clone Dm28c. Epimastigote forms were kept at 28 °C in LIT medium supplemented with 10% inactivated FCS, with passages at every three days. For the experiments, parasites obtained from 72-h cultures were used.
(§2) Single drug activity assays on T. cruzi developmental forms - All experiments were performed in biological and technical triplicates. Incubations were performed for 24 h in all bioassays. The absorbance of untreated cells in culture media containing 0.5% DMSO (control) was used as 100% cell viability, and the percentage of dead cells in each treatment was estimated by comparison with the untreated control.
(§3) For all assays, IC50/24 h values (based on cell counting, MTT data or infection index values) and dose-response curves were generated using the CompuSyn software (ComboSyn Inc., Paramus, NJ, USA), and statistical analysis was performed in Excel. For all assays, the fraction of affected cells (Fa) was calculated relative to the untreated control (treated/untreated ratio).
To test PaEO activity against intracellular amastigotes, Vero cells were seeded in 24-well plates (2 x 10^4 cells/well) in DMEM (Sigma-Aldrich), and allowed to adhere for 24 h. Then, cell-derived trypomastigotes were added to each well (1:10 ratio of cells to parasites), incubated for 3 h, and non-internalised parasites were removed by washing with PBS. Infected cultures were incubated for 24 h (at 37 °C, 5% CO2), and then the culture medium was replaced with RPMI-1640 containing PaEO or BZ at final concentrations between 1 and 100 µg/mL (total volume of 1 mL/well), and plates were incubated for 24 h, at 37 °C (5% CO2). Treated cells were fixed with methanol, stained with Giemsa, and the inhibitory effect on intracellular amastigotes was estimated by counting (a) the number of infected cells, and (b) the number of amastigotes per cell, in 100 cells/wells, from random light microscopy images.

Series [3] is described as follows: Cytotoxicity on Vero cells, MTT assay. In kind it is cell-based. Conditions: African green monkey, Vero cells (ATCC CCL-81), Vero cells.
Protocol: MTT assay - After drug treatments, MTT solution (10 mg/mL in PBS) was added to each well for a final concentration of 2.5 mg/mL (or 1 mg/mL for trypomastigotes). Plates were incubated for 3 h at 28 °C in the dark, centrifuged for 10 min at 475 g and the supernatant was removed (by quick plate reversal). Then, 20 µL SDS was added to each well, followed by incubation for 1 h at 28 °C, after which 80 µL DMSO was added to each well and incubated for a further 1 h at 28 °C. Finally, the residual material was removed with the aid of a toothpick, and sample absorbance (at 550 nm) was read in an EL800 microplate reader (Biotek, Winooski, VT, USA). Dose-response curves were produced using the CompuSyn software, which was also used to calculate IC50/24 values.
Cytotoxicity - Vero cells were seeded in 96-well plates (2 x 10^4 cells/well) with RPMI-1640 medium and cultivated for 24 h at 37 °C (5% CO2). […] Then, plates were subjected to the MTT assay as described above (see “MTT assay”), and MTT data were used to calculate 50% cytotoxicity (CC50/24 h) values. Plates were examined in an inverted microscope every 12 h, to evaluate monolayer integrity (confluence and adhesion).
Series [4] has as its system Trypanosoma cruzi cell-derived trypomastigotes. The series can be described thus: PaEO activity on cell-derived trypomastigotes at 28 °C, 24 h, cell counting. In kind it is cell-based, T. cruzi clone Dm28c.
Protocol: To obtain cell-derived trypomastigotes, Vero cells were incubated with cell-derived trypomastigotes (1:10 ratio of cells to parasites) in 75 cm^2 culture flasks containing 8 mL DMEM. After 4 h of interaction, non-internalised parasites were removed by rinsing with phosphate-buffered saline (PBS), new medium was added, and then changed to fresh medium every 24 h. After 96 h of infection, trypomastigotes released into the supernatant were collected by centrifugation at 3000 g for 10 min.
PaEO activity assays with cell-derived trypomastigotes were performed at 28 °C and 4 °C. […]
The test system of series [5] is Trypanosoma cruzi epimastigotes. Put plainly: PaEO activity on epimastigotes at 28 °C, 24 h, MTT assay. The format is cell-based, T. cruzi clone Dm28c. The method, then: as §1, §2, §3
To test the activity of PaEO on epimastigote forms, these cells were seeded into 96-well plates (5 x 10^6 cells/well) in LIT medium, and treated for 24 h at 28 °C with PaEO at the final concentrations of 9, 18, 37, 75, 150 and 300 µg/mL. […] Cell viability was assessed by the MTT assay (see “MTT assay”). […]

The test system of series [6] is Trypanosoma cruzi metacyclic trypomastigotes. The series can be described thus: PaEO activity on metacyclic trypomastigotes at 28 °C, 24 h, cell counting. The format is cell-based, T. cruzi clone Dm28c. The method, then:
as §1
To obtain metacyclic trypomastigotes, culture epimastigotes in late logarithmic growth phase (five days) were subjected to nutritional stress as described previously ([Contreras et al. 1985]). […]
Single drug activity assays on T. cruzi developmental forms - All experiments were performed in biological and technical triplicates. […] The absorbance of untreated cells in culture media containing 0.5% DMSO (control) was used as 100% cell viability, and the percentage of dead cells in each treatment was estimated by comparison with the untreated control.
For all assays, IC50/24 h values (based on cell counting, MTT data or infection index values) and dose-response curves were generated using the CompuSyn software (ComboSyn Inc., Paramus, NJ, USA), and statistical analysis was performed in Excel. For all assays, the fraction of affected cells (Fa) was calculated relative to the untreated control (treated/untreated ratio). […]

The subject of the next series is red blood cells (RBCs). Put plainly: Cytotoxicity on red blood cells at 4 °C. The format is cell-based, human. Conditions: CC50 RBCs (4 °C) / IC50 cell-derived trypomastigotes (4 °C). The method, then:
(§4) To analyse cytotoxicity on red blood cells (RBCs) at 4 °C, human erythrocytes were obtained from 10-mL blood samples (O+), from a healthy volunteer donor, as previously described ([Izumi et al. 2012]). After collection, blood was […] and then washed with a sterile ‘saline-glucose’ solution (0.85% NaCl/5% glucose). The final pellet was diluted in saline-glucose and centrifuged for 5 min at 1400 g. The supernatant was discarded and the pellet of RBCs was diluted in saline-glucose, for a final concentration of 6%. […] Negative control samples represented untreated RBCs diluted in saline-glucose. After treatment, plates were centrifuged at 1027 g for 2 min, and 100 µL of supernatant from each well were transferred to a new plate and analysed (at 550 nm) in an EL800 microplate reader (Biotek, Winooski, VT, USA). Cytotoxicity (CC50) values were calculated using Excel, and selectivity index (SI) values were calculated as the ratio between the CC50/24 h (for Vero cells or RBCs) and IC50/24 h values.

Series [7] in a line: Cytotoxicity on red blood cells at 4 °C. Conditions: red blood cells (erythrocytes); human RBCs, 4 °C. The format is cell-based, human. The method, then: as §4
The test system of series [8] is T. cruzi blood trypomastigotes (Y strain). More on the design: method as in Santoro et al. 2007b. Conditions: ref Santoro et al. 2007b; cited from earlier work.
[9] abbreviates: 37 °C, read-out: Vero cells CC50/24 h.
Where [10] appears, read: Trypanosoma cruzi, 24 h, read-out: IC50/24 h.

As to `C=CC(C)(O)CCC=C(C)CCC=C(C)C` (mixture of isomers) [nerolidol], the “Integrity of Vero cell monolayers” value in the series with Vero cells was “did not affect the integrity; also recorded: remained intact”. Also, in series [1] (100 ng/mL to 1 µg/mL, 4 °C, 24 h, data not shown), the “Trypanocidal activity (light microscopy and MTT)” value is “no appreciable trypanocidal activity; also recorded: failed to affect significantly”.
With `O=C(Cn1ccnc1[N+](=O)[O-])NCc1ccccc1` [BZ, Benznidazole], the Treatment efficacy entry in the series on Chagas disease (acute phase of the disease) is listed as “approximately 80%”; with Chagas disease (chronic phase of the disease) it was about 20%. In the series on Chagas disease (ref Bern 2011), the “Treatment discontinuation due to side effects” value is 7-13 % of cases. The II decrease amounted to 81.3% in series [2] (10 µg/mL, 24 h) and 99.9% in series [2] (50 µg/mL, 24 h). Further, the Amastigotes per cell was 2.5 in series [2] (10 µg/mL, 24 h) and 0.9 in series [2] (50 µg/mL, 24 h). The “Infected cells (%)” value in [2] (10 µg/mL, 24 h) was determined as 74.9%; in series [2] (50 µg/mL, 24 h), 0.4%. Also, the “Infection index (II)” value in series [2] (10 µg/mL, 24 h) came out at 187.2; in series [2] (50 µg/mL, 24 h) it was 0.3. Further, the “Selectivity index (SI)” value is given as 1,276.2 in [2] (CC50 on Vero cells / IC50, amastigotes 37 °C); 63.4 in [4] (CC50 on Vero cells / IC50, cell-derived trypomastigotes 28 °C); 69.4 in series [5] (CC50 on Vero cells / IC50, epimastigotes 28 °C); 3,646.4 in [6] (CC50 on Vero cells / IC50, metacyclic trypomastigotes 28 °C). The IC50 in [2] (Trypanosoma cruzi, Vero, 24 h, read-out: IC50/24 h) is 0.8 µg/mL (≈ 3.07 µM); in series [4] (setting [10]), 16.1 µg/mL (≈ 61.9 µM); in series [5] (setting [10]) it was 45 µM and 14.7 µg/mL; in series [6] (setting [10]), 0.3 µg/mL (≈ 1.15 µM). The CC50 at 24 h in [3] (setting [9]) was over 1000 µg/mL.
In the case of `CN(C)c1ccc(C(=C2C=CC(=[N+](C)C)C=C2)c2ccc(N(C)C)cc2)cc1` [Gentian Violet, gentian violet], the “Selectivity index (SI) - RBCs” value in the series with red blood cells (RBCs) is over 2.8. The “Selectivity index (SI) - Vero cells” value in series [1] is 2.9.
`C=CC(C)(O)CCC=C(C)C` (centres unmarked) [Linalool, linalool]: the “Selectivity index (SI) - RBCs” value in the series with red blood cells (RBCs) was 23,990. Moreover, the CC50 at 24 h was determined as 7340 µg/mL (≈ 47600 µM) in [7]; 0.87 µg/mL (≈ 5.64 µM) in series [3] (setting [9]); 0.824 µg/mL (≈ 5.34 µM) in series [3] (b44 prints at 4 °C, read-out: CC50/24 h). Also, the “Selectivity index (SI) - Vero cells” value came to 2.7 in series [1] and 2.69 in [1] (listed as linalool). For the same molecule, the IC50 in series [1] (cell-derived trypomastigotes, 4 °C, 24 h, read-out: IC50/24 h) came out at 0.306 µg/mL (≈ 1.98 µM); in series [1] (cell-derived trypomastigotes, 4 °C, 24 h, read-out: T. cruzi IC50/24 h), 0.31 µg/mL (≈ 2.01 µM). Besides, the “Times more efficient than gentian violet” value in series [1] (cell-derived trypomastigotes, 4 °C) is “approximately 80,000 times”. The “Times more effective than BZ at 28ºC” value in series [1] (linalool at 4 °C vs BZ at 28 °C, cell-derived trypomastigotes) was “approximately 52 times”. In [8], the IC50/24 h is on record as 264 µg/mL (≈ 1710 µM).
